Measurements as given in patent US6906205B2, “Spiro and dispiro 1,2,4-trioxolane antimalarials” (Medicines for Malaria Venture MMV, priority 2002, dated 2005).
Values after ≈ are worked out from the molar mass of the structure shown.

Columns and labels:
[1] = tested on: ANKA strain of P. berghei; test: single dose STI in vivo screen in infected mice; design: species or system Plasmodium berghei; conditions: for Activity (%) po / Activity (%) sc / Activity (%) SSVpo: percent reduction in parasitemia day 3 post-infection, mice; for Activity (%) po / Survival (days) po: single 10 mg/kg po in 3% ethanol and 7% Tween 80; for Activity (%) sc / Survival (days) sc: single 10 mg/kg sc in 3% ethanol and 7% Tween 80; for Activity (%) SSVpo: single po dose in standard suspending vehicle (SSV); for Survival (days) po / Survival (days) sc / Survival (days) SSVpo: untreated control 5.6 ± 0.3; for Survival (days) SSVpo: single po dose in SSV
How it was run: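 Groups of 3-5 Moro SPF or NMRI mice infected with the ANKA strain of P. berghei received a single dose of trioxolane on day one post-infection. The compound was given in 3% ethanol and 7% Tween 80 or in SSV (0.5% w/v CMC, 0.5% v/v benzyl alcohol, 0.4% v/v Tween 80, 0.9% w/v sodium chloride in water). Antimalarial activity was scored as percent reduction in parasitemia on day three and as survival time versus untreated controls. Survival to day 30 counted as cure.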

[2] = tested on: ANKA strain of Plasmodium berghei; test: single dose ED50/ED90/ED99 determinations in infected mice; type: in vivo; conditions: single dose po in SSV, mice, percent reduction in parasitemia on day three post-infection
Protocol: In the single dose ED50/ED90/ED99 determinations, Moro SPF or NMRI mice (group of three) infected with the ANKA strain of Plasmodium berghei were treated on day one post-infection. […] The SSV consists of 0.5% w/v CMC, 0.5% v/v benzyl alcohol, 0.4% v/v Tween 80, and 0.9% w/v sodium chloride in water. Antimalarial activity was measured by percent reduction in parasitemia on day three post-infection. The ED50/ED90 values were calculated by nonlinear fitting.

[3] = tested on: P. falciparum K1 strain (Thailand resistant to chloroquine); test: semiautomated microdilution assay, [3H]-hypoxanthine incorporation, K1 strain; type: cell-based, Plasmodium falciparum; conditions: K1 strain, 72 h incubation
How it was run: (§1)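 Compounds were tested against intraerythrocytic parasites taken from asynchronous stock cultures, using semiautomated microdilution. IC50 values were estimated by logit regression analysis.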

[4] = tested on: P. falciparum NF54 strain (sensitive to standard antimalarials); test: semiautomated microdilution assay, [3H]-hypoxanthine incorporation, NF54 strain; type: cell-based, Plasmodium falciparum; conditions: NF54 strain, 72 h incubation
How it was run: as §1

[5] = tested on: Schistosoma mansoni adult schistosomes (49-day-old); test: effect on adult schistosomes (49-day-old) in mice; type: in vivo
Protocol: Mice were infected with 100 Schistosoma mansoni cercariae […]. Each group was treated per os with OZ compounds at single doses of 200, 400, and 600 mg/kg. […] All groups were killed 4 weeks after treatment and the liver and intestine were removed and separated. The liver and intestine were compressed and alive male and female worms could be seen and counted.

[6] = tested on: Schistosoma mansoni 21-day-old schistosomules; test: effect on 21-day-old schistosomules in mice; type: in vivo; conditions: single 200 mg/kg per os, female mice
Protocol: All groups were killed 4 weeks after treatment and the liver and intestine were removed and separated. The liver and intestine were compressed and alive male and female worms could be seen and counted. The effect of the compounds was evaluated by mean total and female worm burden.

SMILES | Activity (%) po [1] | Activity (%) sc [1] | Activity (%) SSVpo [1] | Survival (days) po [1] | Survival (days) sc [1] | Survival (days) SSVpo [1] | ED90 [2] | ED99 [2] | IC50 (ng/ml) K1 [3] | IC50 (ng/ml) NF54 [4] | ED50 [2] | further results
O=C(O)CC1CCC2(CC1)OOC1(O2)C2CC3CC(C2)CC1C3 (stereo not drawn) [OZ78] | 94% | 79% | 97% | 8.7 days | 6.7 days | 7.0 days | 9.1 mg/kg | 17 mg/kg | 24 ng/mL (≈ 74.4 nM) | 42 ng/mL (≈ 130 nM) | – | % reduction of adult worms growth at day 49 after per os application of 200 mg/kg, TWR (%) ([5]; single 200 mg/kg per os): 24%; adult worms at day 49, per os 200 mg/kg, DEAD WORM (%) ([5]; single 200 mg/kg per os): 29%; % reduction of adult worms growth at day 49 after per os application of 400 mg/kg, TWR (%) ([5]; single 400 mg/kg per os): 0%; adult worms at day 49, per os 400 mg/kg, DEAD WORM (%) ([5]; single 400 mg/kg per os): 17%; % reduction of adult worms growth at day 49 after per os application of 600 mg/kg, TWR (%) ([5]; single 600 mg/kg per os): 0%; adult worms at day 49, per os 600 mg/kg, DEAD WORM (%) ([5]; single 600 mg/kg per os): 14%; % reduction of schistosomule growth at day 21 after per os application of 200 mg/kg, FWR (%) [6]: 87%; % reduction of schistosomule growth at day 21 after per os application of 200 mg/kg, TWR (%) [6]: 82%
COCC(=O)N1CCC2(CC1)OOC1(O2)C2CC3CC(C2)CC1C3 (stereo not drawn) [OZ113] | 92% | 89% | 96% | 7.3 days | 7.3 days | 8.0 days | 9.0 mg/kg | 19 mg/kg | 0.95 ng/mL (≈ 2.82 nM) | 0.20 ng/mL (≈ 0.593 nM) | 3.6 mg/kg | –
c1ncn(C[C@H]2CC[C@]3(CC2)OOC2(O3)C3CC4CC(C3)CC2C4)n1 (stereo partly drawn) [OZ235] | 99.92% | 97% | 99.97% | 8.7 days | 8.0 days | 9.0 days | 7.1 mg/kg | 11 mg/kg | 1.0 ng/mL (≈ 2.89 nM) | 2.0 ng/mL (≈ 5.79 nM) | 4.0 mg/kg | –
c1cn(CC[C@H]2CC[C@]3(CC2)OOC2(O3)C3CC4CC(C3)CC2C4)cn1 (stereo partly drawn) [OZ219] | 99.89% | 99.91% | 99.82% | 8.7 days | 9.3 days | 8.0 days | 3.0 mg/kg | 5.2 mg/kg | 0.85 ng/mL (≈ 2.37 nM) | 1.6 ng/mL (≈ 4.46 nM) | 1.6 mg/kg | –
c1ccc(C2CCC3(CC2)OOC2(O3)C3CC4CC(C3)CC2C4)cc1 (stereo not drawn) [OZ27] | 99.97% | 99.92% | 96% | 12.6 days | 17.1 days | 8.0 days | 5.7 mg/kg | 9.9 mg/kg | – | – | – | IC50 ([3]; Plasmodium falciparum, read-out: IC50 (ng/ml) K1): 2.2 ng/mL (≈ 6.46 nM); IC50 ([4]; Plasmodium falciparum, read-out: IC50 (ng/ml) NF54): 4.8 ng/mL (≈ 14.1 nM)
c1cn(C[C@H]2CC[C@]3(CC2)OOC2(O3)C3CC4CC(C3)CC2C4)cn1 (stereo partly drawn) [OZ179] | – | – | 99.78% | – | – | 10.3 days | 3.3 mg/kg | 6.6 mg/kg | 1.3 ng/mL (≈ 3.77 nM) | 1.1 ng/mL (≈ 3.19 nM) | 1.4 mg/kg | Activity (%) po ([1]; 10 mg/kg): 99.91%; Activity (%) sc ([1]; 10 mg/kg): 99.91%; Survival (days) po ([1]; 10 mg/kg): 11.3 days; Survival (days) sc ([1]; 10 mg/kg): 11.3 days
